One data set deals with JAK3 JH1 kinase (Homo sapiens, UniProt P52333). The experiment in a line: JAK3 JH1 enzyme assay in vitro (TR-FRET). Format: biochemical. In general terms: In TR-FRET formats the signal depends on donor and acceptor labels being close together.
A further data set concerns SD rats. The experiment in a line: Four-week repeat-dose toxicity study in rats. Type of data set: in vivo. The note with it: rat, 28 days, po bid, 50 mg/kg. The procedure:
Each group contained 10 animals, with an equal number of males and females.
The treatment lasted for four consecutive weeks (28 days).
• Daily clinical observation and body weight measurement; • After the last administration, rats were fasted for more than 16 h, anesthetized on the next day, and blood was collected from abdominal aorta. Tests such as hematology (EDTA-2K anticoagulation), blood biochemistry (serum), coagulation function (separated plasma with sodium citrate anticoagulation) and the like were respectively carried out; • After euthanization of the animals, the tissue organs were dissected and observed in general, and organ weights and coefficients (heart, liver, spleen, kidney, thymus) were determined; • The skin and lung tissues of the administration site were taken for HE staining to observe the changes in epidermal thickness, dermal inflammatory cells and pulmonary lesions.

Data set [1] deals with imiquimod-induced mouse psoriasis-like model. The experiment in a line: Imiquimod-induced mouse psoriasis-like model (PASI score). Particulars: bid; for Improvement of psoriasis symptoms by oral administration: oral gavage, 10 mg/kg, 25 mg/kg, 50 mg/kg, compared with the model group. Format: in vivo.
The target in a further data set is JAK1 JH1 kinase (Homo sapiens, UniProt P23458). Put plainly: JAK1 JH1 enzyme assay in vitro (TR-FRET). Type of data set: biochemical. Particulars: read-out: JAK 1 JH1 IC50.
The next data set has as its target TYK2 JH2 pseudokinase (Homo sapiens, UniProt P29597). Put plainly: TYK2 JH2 enzyme binding assay in vitro (TR-FRET). The procedure:
Instrumentation: Envision microplate reader (PerkinElmer), ECHO550 (LABCYTE).
Method: the inhibitory effects of compounds on TYK2 JH2 pseudokinase was tested using time-resolved fluorescence resonance energy transfer (TR-FRET) method.
Procedure: compounds were prepared into 10 mM stock solutions using DMSO, which were further diluted into compound dilutions (200×) with different concentration gradients in DMSO, and the compound dilutions (200×) were transferred to a 384-well assay plate using an Echo instrument. […] TYK2 JH2 pseudokinase, Tb antibody, and Tracer working solutions were prepared using the dilution buffer, respectively. 5 uL of TYK2 JH2 pseudokinase working solution (final concentration 0.5 nM) was added to a 384-well assay plate, and centrifuged at 1000 rpm for 30 s. 5 uL of Tb antibody (final concentration 1×) was added to the 384-well assay plate, and centrifuged at 1000 rpm for 30 s. 5 uL of Tracer (final concentration 0.5 nM) was added to the 384-well assay plate, and centrifuged at 1000 rpm for 30 s. Incubation was performed at room temperature for 60 min, and then at 4° C. overnight.
Data Analysis: XLfit, a software developed by IDBS and integrated into the Microsoft Excel environment, was used to process and analyze the test data.

A further data set addresses JAK2 JH1 kinase (Homo sapiens, UniProt O60674). Put plainly: JAK2 JH1 enzyme assay in vitro (TR-FRET). Format: biochemical. Particulars: read-out: JAK 2 JH1 IC50.
In another data set the target is T1, TYK2 JH1 kinase (Homo sapiens, UniProt P29597).
T1 sequence (P29597 897-1176 limits assumed): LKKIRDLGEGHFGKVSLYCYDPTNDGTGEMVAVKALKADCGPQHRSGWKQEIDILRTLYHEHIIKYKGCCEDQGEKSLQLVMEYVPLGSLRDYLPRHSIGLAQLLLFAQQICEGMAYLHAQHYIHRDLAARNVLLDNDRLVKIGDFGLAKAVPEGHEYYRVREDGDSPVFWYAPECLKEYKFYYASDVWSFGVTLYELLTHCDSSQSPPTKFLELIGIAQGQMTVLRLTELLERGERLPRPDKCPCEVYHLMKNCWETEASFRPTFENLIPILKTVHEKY
The experiment in a line: TYK2 JH1 enzyme assay in vitro (TR-FRET). Format: biochemical.

Data set [2] deals with Ba/F3 cell line expressing TYK2 (Homo sapiens, UniProt P29597, cells depend on it, form not given). The experiment in a line: In vitro cellular inhibition assay (Ba/F3 cell proliferation, CellTiter-Glo). Particulars: read-out: IC50 (the source's name). Format: cell-based. Put shortly:
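Ba/F3 cells dependent on TYK2 were exposed to serially diluted compound, then viability was read by CellTiter-Glo luminescence. Inhibition (%) was calculated from RLU relative to max and min controls, and IC50 was obtained by curve fitting.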

The target in the next data set is T2, hERG channel (Homo sapiens, UniProt Q12809).
T2 construct: expressed in transfected cells; host or cells: HEK-293
Put plainly: hERG potassium channel inhibition assay (manual patch clamp). Type of data set: cell-based. The note with it: HEK-293 cell line stably expressing hERG channel, at the tested concentrations. The procedure: Instrumentation: HEKA EPC 10 patch clamp amplifier.
Method: in this experiment, the blocking effect of the compounds on the current of the HEK-293 cell line stably expressing hERG channel was measured using the manual patch clamp technique, and the risk of the compounds on the inhibition of cardiac hERG potassium channel was assessed by fitting the concentration effect relationship.
Procedure: in the patch clamp operation, firstly, a capillary glass tube was pulled into a recording electrode using a microelectrode puller, then an electrode filled with intracellular solution was mounted into a microelectrode holder. A microelectrode manipulator was operated under an inverted microscope to immerse the electrode into an extracellular solution and the electrode resistance (Rpip) was recorded. Then, the electrode was slowly brought into contact with the cell surface, and a negative pressure was applied for suction to form a GΩ seal. At this point, a fast capacitance compensation was performed, and a negative pressure was continuously applied to suck and break the cell membrane to form a whole cell recording mode. Finally, a slow capacitance compensation was performed and experimental parameters including series resistance (Rs) and the like were recorded. No leakage compensation was performed. When the hERG current recorded by the whole cell was stable, the administration of drugs commenced, and each drug concentration acted for about 5 min (or until the current stabilization) before detecting the next concentration. A cover glass covered with cells was placed in a recording bath under an inverted microscope, the blank control extracellular solution and the working solution of the compounds to be tested sequentially flowed through the recording bath from low concentration to high concentration by using gravity perfusion to act on the cells, and solution exchange was performed using a peristaltic pump during recording. The current measured by each cell in the extracellular solution without the compound served as its own control group. Each concentration was independently assessed twice. All electrophysiological tests were performed at room temperature.
Data Analysis: firstly, the tail current (Peak tail currentcompound) after the action of each drug concentration and the blank control tail current (Peak tail currentcontrol) were normalized, then the inhibition rate
corresponding to each drug concentration was calculated, and the mean (Mean), standard deviation (SD) and standard error (SE) of the inhibition rate corresponding to each concentration were calculated, with data expressed as Mean±SE. The calculation of IC50 value and the fitting of dose-response curve for the compound were performed using GraphPad Prism software.

In another data set the target is JAK1 JH2 pseudokinase (Homo sapiens, UniProt P23458). The experiment in a line: JAK1 JH2 enzyme binding assay in vitro (TR-FRET). The note with it: read-out: JAK 1 JH2 IC50. Here is the method: Instrumentation: Envision microplate reader (PerkinElmer), Echo (LABCYTE)
Method: in this experiment, the inhibitory effects of compounds on JAK1 JH2 pseudokinase was tested using time-resolved fluorescence resonance energy transfer (TR-FRET) method.
Procedure: compounds were prepared into 10 mM stock solutions using DMSO, which were further diluted into compound dilutions with different concentration gradients in DMSO, and the compound dilutions with 200× final concentration were transferred to a 384-well assay plate using an Echo instrument. The preparation of the following 1× assay working solution: HEPES pH7.5 at a final concentration of 20 mM, MgCl2 at a final concentration of 10 mM, Brij-35 at a final concentration of 0.015%, DTT at a final concentration of 2 mM, BSA at a final concentration of 50 ug/mL. JAK1 JH2 pseudokinase with 3× final concentration, Tb antibody and Tracer were prepared using their respective 1× working solution. 5 uL of JAK1 JH2 pseudokinase was added to a 384-well assay plate, and centrifuged at 1000 rpm for 30 s. 5 uL of Tb antibody was added to the 384-well assay plate, and centrifuged at 1000 rpm for 30 s. 5 uL of Tracer was added to the 384-well assay plate, and centrifuged at 1000 rpm for 30 s. Incubation was performed at room temperature for 60 min, and then at 4° C. overnight. Finally, the 495 nm/520 nm fluorescence signal ratio was measured using the Envision microplate reader (PerkinElmer).
Data Analysis: XLfit, a software developed by IDBS and integrated into the Microsoft Excel environment, was used to process and analyze the test data. […] Thereafter, the concentration and corresponding inhibition rate data were imported into the XLfit software, and the Dose Response One Site 205 model within the software was employed to fit the inhibition rate-concentration curve by four-parameter method, and the IC50 value of the compound was calculated.

[3] abbreviates: TR-FRET, read-out: JAK 3 JH1 IC50.

pIC50: −log10 of the molar value. Where two headings read alike, the source gives them in different places. Marks after values point to notes of the source that are not given here.

For orientation: pIC50 means the negative decadic logarithm of the IC50, by convention in mol/L.

Sequence of JAK2 JH1 kinase (O60674 849-1124 limits assumed): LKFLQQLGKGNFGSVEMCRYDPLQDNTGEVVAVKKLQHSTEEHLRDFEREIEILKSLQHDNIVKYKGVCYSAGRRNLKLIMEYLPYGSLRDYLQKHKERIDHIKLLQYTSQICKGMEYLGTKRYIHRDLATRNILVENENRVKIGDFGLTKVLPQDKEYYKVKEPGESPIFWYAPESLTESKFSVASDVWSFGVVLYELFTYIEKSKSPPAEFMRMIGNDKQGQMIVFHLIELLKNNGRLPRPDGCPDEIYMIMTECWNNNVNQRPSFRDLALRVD
Sequence of JAK3 JH1 kinase (P52333 822-1111 limits assumed): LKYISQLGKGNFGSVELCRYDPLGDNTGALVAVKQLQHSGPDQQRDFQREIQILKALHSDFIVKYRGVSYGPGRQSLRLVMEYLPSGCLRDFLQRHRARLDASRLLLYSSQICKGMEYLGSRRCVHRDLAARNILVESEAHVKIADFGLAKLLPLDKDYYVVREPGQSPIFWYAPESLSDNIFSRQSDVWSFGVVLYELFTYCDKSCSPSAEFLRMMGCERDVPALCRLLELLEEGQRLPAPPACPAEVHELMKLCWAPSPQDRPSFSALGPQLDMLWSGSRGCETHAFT
Sequence of JAK1 JH1 kinase (P23458 875-1153 limits assumed): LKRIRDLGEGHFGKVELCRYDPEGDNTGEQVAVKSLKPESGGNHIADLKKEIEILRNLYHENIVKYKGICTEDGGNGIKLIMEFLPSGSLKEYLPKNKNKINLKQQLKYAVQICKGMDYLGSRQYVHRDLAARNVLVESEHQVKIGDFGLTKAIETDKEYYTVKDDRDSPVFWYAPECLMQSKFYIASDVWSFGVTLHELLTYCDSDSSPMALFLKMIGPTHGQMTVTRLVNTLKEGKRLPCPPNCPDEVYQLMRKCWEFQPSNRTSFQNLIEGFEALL
T2 sequence (Q12809 whole entry): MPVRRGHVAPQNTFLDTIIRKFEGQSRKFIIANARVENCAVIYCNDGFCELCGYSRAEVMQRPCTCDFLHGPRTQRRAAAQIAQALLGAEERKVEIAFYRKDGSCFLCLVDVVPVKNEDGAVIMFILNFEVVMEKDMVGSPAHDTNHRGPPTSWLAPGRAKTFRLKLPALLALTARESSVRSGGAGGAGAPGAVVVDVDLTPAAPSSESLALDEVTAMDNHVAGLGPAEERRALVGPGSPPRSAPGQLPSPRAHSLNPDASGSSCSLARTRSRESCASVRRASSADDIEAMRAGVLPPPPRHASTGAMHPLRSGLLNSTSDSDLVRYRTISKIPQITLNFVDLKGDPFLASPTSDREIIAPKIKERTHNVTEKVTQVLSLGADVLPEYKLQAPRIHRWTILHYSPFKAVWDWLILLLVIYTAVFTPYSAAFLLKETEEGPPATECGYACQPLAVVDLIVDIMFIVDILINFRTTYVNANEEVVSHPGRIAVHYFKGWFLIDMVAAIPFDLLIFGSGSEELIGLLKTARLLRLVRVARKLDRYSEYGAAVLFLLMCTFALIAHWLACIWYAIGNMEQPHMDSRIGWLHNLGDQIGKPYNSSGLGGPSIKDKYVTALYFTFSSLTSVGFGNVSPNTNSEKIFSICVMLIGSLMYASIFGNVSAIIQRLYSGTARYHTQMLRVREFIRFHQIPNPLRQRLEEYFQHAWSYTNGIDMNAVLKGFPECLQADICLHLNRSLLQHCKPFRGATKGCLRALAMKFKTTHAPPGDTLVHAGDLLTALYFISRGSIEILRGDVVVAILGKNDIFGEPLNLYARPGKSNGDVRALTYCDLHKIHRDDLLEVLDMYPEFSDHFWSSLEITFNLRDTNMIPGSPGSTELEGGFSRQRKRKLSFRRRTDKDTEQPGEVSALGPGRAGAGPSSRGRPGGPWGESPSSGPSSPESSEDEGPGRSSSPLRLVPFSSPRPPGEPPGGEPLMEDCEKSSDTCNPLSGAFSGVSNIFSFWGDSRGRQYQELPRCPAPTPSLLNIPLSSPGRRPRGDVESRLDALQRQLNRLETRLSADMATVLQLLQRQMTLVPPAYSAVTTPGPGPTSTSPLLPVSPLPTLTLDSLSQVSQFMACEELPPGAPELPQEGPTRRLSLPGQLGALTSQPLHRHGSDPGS
Sequence of TYK2 JH2 pseudokinase (P29597 589-875 limits assumed): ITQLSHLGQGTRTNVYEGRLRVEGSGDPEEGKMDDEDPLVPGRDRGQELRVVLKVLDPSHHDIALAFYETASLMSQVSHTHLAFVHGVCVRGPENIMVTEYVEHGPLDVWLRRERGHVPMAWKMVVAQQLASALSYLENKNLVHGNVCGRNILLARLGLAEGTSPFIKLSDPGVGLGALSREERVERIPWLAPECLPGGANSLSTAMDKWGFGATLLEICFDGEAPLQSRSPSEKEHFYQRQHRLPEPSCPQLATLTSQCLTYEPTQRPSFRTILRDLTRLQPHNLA
Sequence of JAK1 JH2 pseudokinase (P23458 583-855 limits assumed): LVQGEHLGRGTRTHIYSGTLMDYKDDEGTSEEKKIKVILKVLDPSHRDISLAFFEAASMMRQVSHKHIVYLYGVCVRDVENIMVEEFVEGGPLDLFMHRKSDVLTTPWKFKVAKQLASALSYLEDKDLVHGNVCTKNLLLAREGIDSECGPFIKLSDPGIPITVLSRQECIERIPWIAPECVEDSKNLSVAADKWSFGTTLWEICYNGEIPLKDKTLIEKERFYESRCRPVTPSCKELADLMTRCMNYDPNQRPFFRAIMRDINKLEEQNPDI

Regarding `[2H]C([2H])([2H])NC(=O)c1nnc(NC(=O)C2CC2)cc1Nc1cccc(-c2ncn(C)n2)c1OC([2H])([2H])[2H]` [BMS-986165, reference compound], the pIC50 against JAK3 JH1 kinase is < 5.00. In the data set on SD rats, the “Hematology Gran” value is listed as 1.6 ± 0.6 ×10^9/L, the “Hematology Lymph” value is reported as 3.6 ± 0.8 ×10^9/L and the “Hematology Mono” value was 0.2 ± 0.0 ×10^9/L. Besides, the “Percentage reduction in PASI score %” value in data set [1] (day 7, 10 mg/kg, oral, day 1 to 6) is 30.1** %.

Take `[2H]C([2H])([2H])NC(=O)c1cnc(NC(=O)C2CC2)cc1Nc1cccc(C(=O)Nc2ccc(F)cc2)c1OC` [Example 57, 6-(Cyclopropanecarboxamido)-4-((3-((4-fluorophenyl)carbamoyl)-2-methoxyphenyl)amino)-N-(methyl-d3)nicotinamide]: the negative-log IC50 (pIC50) at JAK3 JH1 kinase (setting [3]) is < 5.00; on JAK1 JH1 kinase, < 5.00; at TYK2 JH2 pseudokinase, 9.55; on JAK2 JH1 kinase it was < 5.00; at TYK2 JH1 kinase, < 5.00; on JAK1 JH2 pseudokinase it was 8.25. Moreover, the GI50 in data set [2] is 1 to 5 nM. Further, the “Improvement of psoriasis symptoms by oral administration” value (“Improvement of psoriasis symptoms” for short) in data set [1] was “effectively improve psoriasis symptoms”. In addition, the hERG inhibition entry at hERG channel is listed as “no significant inhibition”.

Regarding `[2H]C([2H])([2H])NC(=O)c1cnc(NC(=O)C2CC2)cc1Nc1cccc(C(=O)Nc2ccc(C)c(C)c2)c1OC` [Example 62], the pIC50 is < 5.00 on JAK3 JH1 kinase (setting [3]); < 5.00 at JAK1 JH1 kinase; 9.56 at TYK2 JH2 pseudokinase; < 5.00 on JAK2 JH1 kinase; < 5.00 against TYK2 JH1 kinase; 7.84 on JAK1 JH2 pseudokinase. In addition, the GI50 in [2] was in the range of 1 to 5 nM. For the same compound, the “Improvement of psoriasis symptoms” value in data set [1] is reported as “effectively improve psoriasis symptoms”. Further, the hERG inhibition result at hERG channel is “no significant inhibition”.

`[2H]C([2H])([2H])NC(=O)c1cnc(NC(=O)C2CC2)cc1Nc1cccc(C(=O)Nc2cnn(C)c2)c1OC` [Example 86]: the pIC50 on JAK3 JH1 kinase (setting [3]) is < 5.00; on JAK1 JH1 kinase it was < 5.00; at TYK2 JH2 pseudokinase it was 9.52; on JAK2 JH1 kinase, < 5.00; at TYK2 JH1 kinase it was < 5.00; on JAK1 JH2 pseudokinase, 7.75. In addition, the GI50 in [2] is 1 to 5 nM. Further, in data set [1], the “Improvement of psoriasis symptoms” value was “effectively improve psoriasis symptoms”. In addition, the hERG inhibition entry at hERG channel is on record as “no significant inhibition”.

For the compound `[2H]C([2H])([2H])NC(=O)c1cnc(NC(=O)C2CC2)cc1Nc1cccc(C(=O)Nc2cncc(C)c2)c1OC` [Example 91], the negative logarithm of the IC50 (pIC50) on JAK3 JH1 kinase (setting [3]) is < 5.00; on JAK1 JH1 kinase, < 5.00; on TYK2 JH2 pseudokinase, 9.51; on JAK2 JH1 kinase it was < 5.00; against TYK2 JH1 kinase, < 5.00; at JAK1 JH2 pseudokinase it was 8.48. In data set [2], the GI50 was in the range of 1 to 5 nM. Besides, in data set [1], the “Improvement of psoriasis symptoms” value is listed as “effectively improve psoriasis symptoms”. The hERG inhibition entry at hERG channel is recorded as “no significant inhibition”.

For the origin of these results see patent US20260098017A1, “NOVEL AROMATIC RING DERIVATIVE CONTAINING AMIDE SUBSTITUTION AND USE THEREOF” (TIANJIN PHARMACEUTICAL BIOTECHNOLOGY CO., LTD., priority 2022, published 2026).
